{"source": "patent US4859584A", "about": "(priority 1986, dated 1989)", "note": "Residues, ends and D or L forms follow the SMILES beside them."}
{"system": "Yac cells", "details": "not given"}
{"compound": "NCCCS(=O)(=O)O", "note": "[3-Amino-1-propanesulfonic acid]", "Doubling [time] of Yac cells": 99.6}
{"compound": "NC(=O)CNCCS(=O)(=O)O", "note": "[ACES, 2-[(2-Amino-2-oxoethyl)amino]ethane sulfonic acid]", "Doubling [time] of Yac cells": 1038.4}
{"compound": "O=C(O)CN(CCO)CCO", "note": "[BICINE, N,N-bis(2-hydroxyethyl)glycine]", "Doubling [time] of Yac cells": 57.7}
{"compound": "O=S(=O)(O)CCCNC1CCCCC1", "note": "[CAPS, 3-(Cyclohexylamino)-1-propanesulfonic acid]", "Doubling [time] of Yac cells": 45.8, "Effect on cell doubling time (in words)": "negligible effects on cell doubling time"}
{"compound": "O=S(=O)(O)CCNC1CCCCC1", "note": "[CHES, 2-(N-cyclohexylamino)ethane sulfonic acid]", "Doubling [time] of Yac cells": 51.5}
{"compound": "O=S(=O)(O)CC(O)CN(CCO)CCO", "note": "(centres unmarked) [DIPSO, 3-[N-N-bis(2-hydroxyethyl)amino]-2-hydroxypropane-sulfonic acid]", "Doubling [time] of Yac cells": 36.7, "Effect on cell doubling time (in words)": "negligible effects on cell doubling time"}
{"compound": "O=S(=O)(O)CCCN1CCN(CCO)CC1", "note": "[EPPS, N-(2-Hydroxyethyl)piperazine-N-3-propanesulfonic acid]", "Doubling [time] of Yac cells": 32.2, "Effect on cell doubling time (in words)": "negligible effects on cell doubling time"}
{"compound": "N[C@H]1C(O)O[C@H](CO)[C@@H](O)[C@@H]1O", "note": "(some centres unmarked) [Glucosamine]", "Doubling [time] of Yac cells": 288.4}
{"compound": "O=C[C@H](O)[C@@H](O)[C@H](O)[C@H](O)CO", "note": "[Glucose]", "Doubling [time] of Yac cells": 34.5, "Effect on cell doubling time (in words)": "negligible effects on cell doubling time"}
{"compound": "NCC(=O)NCC(=O)O", "note": "[Glycylglycine] (H-Gly-Gly-OH)", "Doubling [time] of Yac cells": 66.9}
{"compound": "O=S(=O)(O)CC(O)CN1CCN(CCO)CC1", "note": "(centres unmarked) [HEPPSO, N-2-hydroxyethylpiperazine-N-2-hydroxypropane-sulfonic acid]", "Doubling [time] of Yac cells": 23.4, "Effect on cell doubling time (in words)": "negligible effects on cell doubling time"}
{"compound": "O=S(=O)(O)CC(O)CN1CCOCC1", "note": "(centres unmarked) [MOPSO, 3-(N-morpholino)-2-hydroxypropane-sulfonic acid]", "Doubling [time] of Yac cells": 178.4}
{"compound": "OC[C@H]1O[C@@](CO)(O[C@H]2O[C@H](CO)[C@@H](O)[C@H](O)[C@H]2O)[C@@H](O)[C@@H]1O", "note": "[Sucrose]", "Doubling [time] of Yac cells": 41.0, "Effect on cell doubling time (in words)": "negligible effects on cell doubling time"}
{"compound": "O=S(=O)(O)CCCNC(CO)(CO)CO", "note": "[TAPS, Tris(hydoxymethyl)-methylaminopropane sulfonic acid]", "Doubling [time] of Yac cells": 32.7, "Effect on cell doubling time (in words)": "negligible effects on cell doubling time"}
{"compound": "O=S(=O)(O)CC(O)CNC(CO)(CO)CO", "note": "(centres unmarked) [TAPSO, 3-[N-tris(hydroxymethyl)methylamino]-2-hydroxypropanesulfonic acid]", "Doubling [time] of Yac cells": 63.6}
{"compound": "Phosphate Buffered Saline", "Doubling [time] of Yac cells": 31.0}
{"system": "V79 cells", "details": "not given"}
{"compound": "CCCCCCCCCCCCCCN1C(=CC=Cc2oc3ccccc3[n+]2CCCCCCCCCCCCCC)Oc2ccccc21", "note": "[DiOC14 (3)]", "Cell doubling time / growth of labelled cells": "Cell doubling time was unaffected"}
{"system": "rabbit red cells", "details": "in vivo", "units": {"Lifetime of labelled red cells in circulation": "days"}}
{"compound": "CCCCCCCCCCCCCCN1C(=CC=CC=Cc2sc3ccccc3[n+]2CCCCCCCCCCCCCC)Sc2ccccc21", "note": "[DiSC14 (5)]", "Effect on clearance rate of red blood cells": "did not affect the clearance rate of red blood cells", "Lifetime of labelled red cells in circulation": 52}
